Among the data in patent US7767676B2, “Dihydro-1,3,5-triazine amine derivatives and their therapeutic uses” (Merck Sante, priority 2000, dated 2010) are melting point and change in vivo values, retold here.

Structures can show the parent of a compound that is named as a salt. Where two headings read alike, the source gives them in different places.

The subject of data set [1] is non-insulin-dependent diabetes induced in rats by Streptozotocin. Nature of the data set: Antidiabetic activity in the Nostz rat (non-insulin-dependent diabetes induced by neonatal streptozotocin), glycaemia after oral treatment. The settings on record: diabetic rats, blood 2 h after last administration; for change in vivo at 20 mg/kg: 20 mg/kg/D oral; for change in vivo at 200 mg/kg: 200 mg/kg/D oral. The class given is in vivo. The method, then:
Study of the Antidiabetic Activity in the Nostz Rat
The antidiabetic activity of the compounds of formula (I) administered orally was determined on an experimental model of non-insulin-dependent diabetes induced in rats by Streptozotocin.
The non-insulin-dependent diabetes model is obtained in rats by neonatal injection (on the day of birth) of streptozotocin.
The diabetic rats used were 8 weeks old. The animals were kept, from the day of their birth to the day of the experiment, in an animal house at a controlled temperature of 21 to 22° C. and subjected to a fixed cycle of light (from 7 am to 7 pm) and darkness (from 7 pm to 7 am). Their diet consisted of a maintenance diet, water and food were provided “ab libitum”, with the exception of the 2 hours of fasting preceding the tests when the food is withdrawn (postabsorptive state).
The rats were treated by the oral route for one (D1) or four (D4) days with the product to be tested. Two hours after the last administration of the product and 30 minutes after anaesthetizing the animals with sodium pentobarbital (Nembutal a), 300 μl of blood sample are collected from the end of the tail.
By way of example, results obtained are assembled in Table III.

[2] abbreviates: 24 h, 1 day of treatment, read-out: percentage variation of glycaemia at D1 relative to D0.
Setting [3] is: 96 h, 4 days of treatment, read-out: percentage variation of glycaemia at D4 relative to D0.

By melting point is commonly meant the temperature of the solid-liquid transition. `CCNC1=NC2(CCCCC2)N=C(N(C)C)N1` (as salt: HCl) [Compound 23] gave a melting point of 248 to 250 °C.

`CN(C)C1=NC2(CCC(OCc3ccccc3)CC2)N=C(N)N1` (stereo not drawn) (as salt: HCl) [Compound 27] returned a melting point above 260 °C.

For the molecule `CN(C)C1=NC2(CCC(O)CC2)N=C(N)N1` (stereo not drawn) [Compound 28], in data set [1] (setting [2]), the change in vivo at 20 mg/kg is -4% and the change in vivo at 200 mg/kg is -4%. For the same molecule, in data set [1] (setting [3]), the change in vivo at 20 mg/kg was -1% and the change in vivo at 200 mg/kg is -13%.

With `CC(C)NC1=NC(C)(C)N=C(N(C)C)N1` (as salt: HCl) [Compound 9], the melting point lay within 149 to 151 °C.

In the case of `CN(C)C1=NC(C)(C)N=C(N2CCCC2)N1` [Compound 17], in data set [1] (setting [2]), the change in vivo at 20 mg/kg is -12% and the change in vivo at 200 mg/kg is -8%. Also, in data set [1] (setting [3]), the change in vivo at 20 mg/kg is -8% and the change in vivo at 200 mg/kg is -14%.

On to `CN(C)C1=NC2(CCC(OCc3ccccc3)CC2)N=C(N)N1` (stereo not drawn) [Compound 27], for which, in data set [1] (setting [2]), the change in vivo at 20 mg/kg is -14% and the change in vivo at 200 mg/kg is -12%. For the same molecule, in data set [1] (setting [3]), the change in vivo at 20 mg/kg is -9% and the change in vivo at 200 mg/kg was -13%.

Molecule `CN(C)C1=NC(C)(C)N=C(N(C)C)N1` (as salt: HCl) [Compound 15] showed a melting point of 250 to 252 °C.

In the case of `CNC1=NC2(CCCCC2)N=C(N(C)C)N1` (as salt: HCl) [Compound 22], the melting point was above 260 °C.

With `CCNC1=NC(C)(C)N=C(N(C)C)N1` (as salt: fumarate) [Compound 14], the melting point is 172 to 174 °C.

In turn, `CN(C)C1=NC(C)(CCCO)N=C(N)N1` (stereo not drawn) [Compound 6] registered a melting point of 138 to 140 °C.

Turning to `CN(C)C1=NC(C)(CCCO)N=C(N)N1` (stereo not drawn) [Compound 7], in data set [1] (setting [2]), the change in vivo at 20 mg/kg is -8% and the change in vivo at 200 mg/kg was -10%. For the same molecule, in data set [1] (setting [3]), the change in vivo at 20 mg/kg is -11% and the change in vivo at 200 mg/kg is -16%.

The molecule `CC(CCC(=O)O)[C@H]1CCC2C3CCC4CC5(CC[C@]4(C)C3CC[C@@]21C)N=C(N)NC(N(C)C)=N5` (stereo partly drawn) (as salt: HCl) yielded a melting point above 260 °C.

As to `CN(C)C1=NC(C)(C)N=C(N)N1` [Compound 3], in data set [1] (setting [2]), the change in vivo at 20 mg/kg was -10% and the change in vivo at 200 mg/kg was -18%. Further, in data set [1] (setting [3]), the change in vivo at 20 mg/kg is -8% and the change in vivo at 200 mg/kg is -22%.

For `CN(C)C1=NC2(CCOCC2)N=C(N)N1` (as salt: HCl) [Compound 38], the melting point was above 260 °C.

`NC1=NC2(CCCCC2)N=C(NCCc2ccccc2)N1` (as salt: salt) [Compound 20] yielded a melting point of 170 to 180 °C.

For `CN(C)C1=NC(C2CC=CCC2)N=C(N)N1` (stereo not drawn) (as salt: toluenesulphonate) [Compound 45], the melting point was in the range of 217 to 219 °C.

Turning to `CN(C)C1=NC(C)(C)N=C(N(C)C)N1` [Compound 15], in data set [1] (setting [2]), the change in vivo at 20 mg/kg is -8% and the change in vivo at 200 mg/kg was -4%. In data set [1] (setting [3]), the change in vivo at 20 mg/kg was -9% and the change in vivo at 200 mg/kg was -5%.

For the molecule `CN(C)C1=NC(c2ccc(O)cc2)N=C(N)N1` (stereo not drawn) (as salt: HCl) [Compound 12], the melting point lay within 251 to 253 °C.

On to `CN(C)C1=NC(C)(C)N=C(N2CCCC2)N1` (as salt: HCl) [Compound 17], for which the melting point is above 260 °C.

As for `CCC1(CC)N=C(N)NC(N(C)C)=N1` (as salt: salt) [Compound 30], the melting point was in the range of 140 to 144 °C.

In turn, `COc1ccc(C2N=C(N)NC(N(C)C)=N2)cc1` (stereo not drawn) (as salt: HCl) [Compound 11] displayed a melting point of 221 to 223 °C.

Regarding `CC1N=C(N(C)C)NC(N(C)C)=N1` [Compound 2, 2,4-bisdimethylamino-3,6-dihydro-6-methyl-1,3,5-triazine hydrochloride], the change in vivo at 20 mg/kg is -11% in data set [1] (setting [2]) and -10% in data set [1] (setting [3]). The change in vivo at 200 mg/kg in data set [1] (setting [2]) and in data set [1] (setting [3]) was -12% throughout.

In the case of `CN(C)C1=NC(c2ccccc2)N=C(N)N1` (stereo not drawn) (as salt: HCl) [Compound 10], the melting point fell in the range of 239 to 241 °C.

As for `CN(C)C1=NC(COc2ccccc2)N=C(N)N1` (stereo not drawn) (as salt: toluenesulphonate) [Compound 41], the melting point lay in the range of 194 to 196 °C.

The molecule `C=CCNC1=NC(C)(C)N=C(N(C)C)N1` (as salt: HCl) [Compound 8] had a melting point of 124 to 126 °C.

As to `CC(C)C1N=C(N)NC(N(C)C)=N1` (stereo not drawn) [Compound 44], in data set [1] (setting [2]), the change in vivo at 20 mg/kg is -7% and the change in vivo at 200 mg/kg is -22%. In data set [1] (setting [3]), the change in vivo at 20 mg/kg is -6% and the change in vivo at 200 mg/kg is -25%.

As for `C=CCNC1=NC(C)N=C(N(C)C)N1` (stereo not drawn) (as salt: HCl) [Compound 26], the melting point fell in the range of 91 to 92 °C.

As to `CNC1=NC2(CCCCC2)N=C(N(C)C)N1` [Compound 22], in data set [1] (setting [2]), the change in vivo at 20 mg/kg was -23% and the change in vivo at 200 mg/kg was -13%. In addition, in data set [1] (setting [3]), the change in vivo at 20 mg/kg was -16% and the change in vivo at 200 mg/kg amounted to 0%.

In turn, `CN(C)C1=NC2(CCCC2)N=C(N)N1` (as salt: HCl) [Compound 31] returned a melting point of 207 to 209 °C.

The molecule `CCC1N=C(N)NC(N(C)C)=N1` (stereo not drawn) (as salt: HCl) [Compound 1, 2-amino-3,6-dihydro-4-dimethylamino-6-ethyl-1,3,5-triazine hydrochloride] registered a melting point of 218 to 220 °C.

Take `CN(C)C1=NC(C(C)(C)C)N=C(N)N1` (stereo not drawn) [Compound 42]: in data set [1] (setting [2]), the change in vivo at 20 mg/kg was -5% and the change in vivo at 200 mg/kg is -26%. Further, in data set [1] (setting [3]), the change in vivo at 20 mg/kg was -4% and the change in vivo at 200 mg/kg was -17%.

Regarding `CN(C)C1=NC2(CCCCC2)N=C(N)N1` (as salt: HCl) [Compound 4], the melting point fell in the range of 243 to 245 °C.

Turning to `CC(CCC(=O)O)[C@H]1CCC2C3C(C[C@H](O)[C@@]21C)[C@@]1(C)CCC2(CC1C[C@H]3O)N=C(N)NC(N(C)C)=N2` (stereo partly drawn) [Compound 25], in data set [1] (setting [2]), the change in vivo at 20 mg/kg is -4% and the change in vivo at 200 mg/kg was -7%. Also, in data set [1] (setting [3]), the change in vivo at 20 mg/kg was -11% and the change in vivo at 200 mg/kg was -6%.

In turn, `CC(C)CCCC(C)[C@H]1CCC2C3CCC4CC5(CC[C@]4(C)C3CC[C@@]21C)N=C(N)NC(N(C)C)=N5` (stereo partly drawn) (as salt: HCl) [Compound 19] showed a melting point above 260 °C.

`CN(C)C1=NC2(CCC(O)CC2)N=C(N)N1` (stereo not drawn) (as salt: HCl) [Compound 28] gave a melting point above 250 °C.

`CC(CCC(=O)O)[C@H]1CCC2C3C(C[C@H](O)[C@@]21C)[C@@]1(C)CCC2(CC1C[C@H]3O)N=C(N)NC(N(C)C)=N2` (stereo partly drawn) (as salt: HCl) [Compound 25] had a melting point above 260 °C.

Turning to `CC1N=C(N(C)C)NC(N(C)C)=N1` (as salt: HCl) [Compound 2, 2,4-bisdimethylamino-3,6-dihydro-6-methyl-1,3,5-triazine hydrochloride], the melting point was 200 to 202 °C.

Molecule `CN(C)C1=NC(C)(CCCO)N=C(N)N1` (stereo not drawn) (as salt: HCl) [Compound 7] showed a melting point of 150 to 152 °C.

With `CC(C)CCCC(C)[C@H]1CCC2C3CCC4CC5(CC[C@]4(C)C3CC[C@@]21C)N=C(N)NC(N(C)C)=N5` (stereo partly drawn) [Compound 19], in data set [1] (setting [2]), the change in vivo at 20 mg/kg is -10% and the change in vivo at 200 mg/kg was -4%. For the same molecule, in data set [1] (setting [3]), the change in vivo at 20 mg/kg is -6% and the change in vivo at 200 mg/kg is -14%.

With `C=CCNC1=NC(C)N=C(N(C)C)N1` (stereo not drawn) [Compound 26], the change in vivo at 20 mg/kg in data set [1] (setting [2]) is -6%; in data set [1] (setting [3]), -11%. Also, the change in vivo at 200 mg/kg was -14% in data set [1] (setting [2]) and -9% in data set [1] (setting [3]).

With `CCCC1N=C(N)NC(N(C)C)=N1` (stereo not drawn) [Compound 32], the values for the change in vivo at 20 mg/kg in data set [1] (setting [2]) and in data set [1] (setting [3]) were 2% and 0%, respectively. For the same molecule, the figures for the change in vivo at 200 mg/kg in data set [1] (setting [2]) and in data set [1] (setting [3]) were -22% and -18%, respectively.

In the case of `CC1N=C(N(C)C)NC(N2CCCC2)=N1` (stereo not drawn) [Compound 21], in data set [1] (setting [2]), the change in vivo at 20 mg/kg is -7% and the change in vivo at 200 mg/kg is -21%. In addition, in data set [1] (setting [3]), the change in vivo at 20 mg/kg is -2% and the change in vivo at 200 mg/kg was -24%.

As to `CN(C)C1=NC2(CCCCC2)N=C(N)N1` [Compound 4], the change in vivo at 20 mg/kg is 0% in data set [1] (setting [2]) and -1% in data set [1] (setting [3]). Besides, the change in vivo at 200 mg/kg in data set [1] (setting [2]) is -20%; in data set [1] (setting [3]), -10%.

Take `CN(C)C1=NC2(CCCC2)N=C(N)N1` [Compound 31]: in data set [1] (setting [2]), the change in vivo at 20 mg/kg was -5% and the change in vivo at 200 mg/kg is -3%. Moreover, in data set [1] (setting [3]), the change in vivo at 20 mg/kg was -11% and the change in vivo at 200 mg/kg is -15%.

With `CN1CCC2(CC1)N=C(N)NC(N(C)C)=N2` [Compound 39], the change in vivo at 20 mg/kg in data set [1] (setting [2]) and in data set [1] (setting [3]) was -6% each time. In addition, the change in vivo at 200 mg/kg was -4% in data set [1] (setting [2]) and -7% in data set [1] (setting [3]).
